The source of these data is article PMC11351458, “Bioaffinity Ultrafiltration Combined with HPLC-ESI-qTOF-MS/MS for Screening Potential Bioactive Components from the Stems of Dendrobium fimbriatum and In Silico Analysis” (Antioxidants, 2024).

Test [1] can be described thus: Superoxide radical scavenging activity. To be noted: 50% free radical scavenging; for EC50: isolated components, read-out: SC50 Superoxide. How it is done: A superoxide radical scavenging assay was performed based on previously reported methods. The superoxide radical was generated in 16 mM Tris-HCl buffer (pH 8.0) containing 50 μL of NBT (300 μM), 50 μL of PMS (120 μM), and 50 μL of different concentrations of the test sample. The reaction was initiated by adding 50 μL of NADH (468 μM) solution to the mixture. After incubating at room temperature for 5 min, the activity of samples was determined by the decrease in absorbance measured at 560 nm against the sample concentration.

Test [2] has as its target T1, acetylcholinesterase (AChE) (Electrophorus electricus, UniProt O42275).
T1 construct: purchased Sigma-Aldrich (St. Louis, MO, USA)
The test can be described thus: Bioaffinity ultrafiltration assay with acetylcholinesterase. Format: binding. The conditions noted are these: components of EtOAc extract; EF = (A1 − A2)/A0 × 100%. As for the experimental part: (§1) The bioaffinity ultrafiltration assay was conducted using a previously described procedure. […] The reaction was conducted at 37 °C for 30 min, then centrifuged using a 14,000× g ultracentrifuge filter at 30 °C for 15 min. The filtrate was removed and 200 μL of Tris-HCl buffer was added to the ultracentrifuge filter and centrifuged at 14,000× g for 15 min at 30 °C. The previous step was repeated 3 times and the filtrate was removed. Then, 200 μL of methanol was added to the ultracentrifuge filter and centrifuged at 14,000× g for 15 min at 30 °C. The previous step was repeated 3 times and the filtrate was collected. The filtrate was concentrated and then dissolved in 50 μL MeOH for HPLC analysis. In addition, the processing of iNOS-ligand complexes was conducted following previously reported methods, while inducible nitric oxide synthase bioaffinity ultrafiltration assays were performed, as detailed above.
(§2) The binding affinity of compounds and enzymes using enrichment factor (EF) was assessed, and was counted as follows: A1, A2, and A0 represent the peak areas of picked compounds acquired from the extracts incubated with activated, inactivated, and no acetylcholinesterase, respectively. EF (%) = (A1 − A2)/A0 × 100%

The subject of test [3] is NO production in RAW 264.7 cells. As to the kind of experiment: Nitric oxide (NO) inhibition assay. Format: cell-based, murine. The conditions noted are these: Mus musculus, RAW264.7, LPS-treated RAW 264.7 cells, read-out: NO Inhibition IC50. How it is done: In this experiment, the RAW 264.7 macrophage cell line was used. The cells were stored at −196 °C in liquid nitrogen. After thawing, the cells were cultured in DMEM at 37 °C and 5% CO2 supplemented with 10% FBS, […] L-glutamine, 1 mM sodium pyruvate, 100 μg/mL streptomycin, and 100 U/mL penicillin.
NO inhibition assay was slightly modified from the reported method. The day before the experiment, RAW 264.7 cells were seeded into 96-well plates with 2 × 10^4 cells per well. The cells were pretreated with the sample solution, and then incubated at 37 °C for 1 h. After incubation, the cells were treated with 100 ng/mL of LPS to induce an inflammatory response. After incubation at 37 °C for 20 h, 50 μL of the supernatant was transferred from each well to another 96-well plate and mixed with an equal volume of Griess reagent. Finally, the absorbance was acquired at 550 nm after 20 min of incubation.

Test [4] can be described thus: Ferric reducing antioxidant power (FRAP). To be noted: mM Trolox equivalents per g. As for the experimental part:
FRAP was measured by the method reported in the previous literature. The working solution was mixed with acetate buffer (pH 3.6), ferric chloride solution (20 mM), and TPTZ solution (10 mM TPTZ in 40 mM HCl) at a proportion of 10:1:1, respectively, and freshly prepared before being used. A total of 900 μL of the working solution was warmed to 37 °C and then mixed with 100 μL of the diluted sample, blank or standard, in a microcentrifuge tube. The tubes were vortexed in a dry bath at 37 °C for 40 min. The absorbance was measured at 593 nm. The standard curve was linear between 0 and 100 mM Trolox. Results were expressed as mM TE/g dry weight. Additional dilution was needed if the FRAP value measured was over the linear range of the standard curve.

Test [5] has as its target T2, inducible nitric oxide synthase (iNOS) (Mus musculus, UniProt P29477).
T2 construct: purchased Sigma-Aldrich (St. Louis, MO, USA)
As to the kind of experiment: Bioaffinity ultrafiltration assay with inducible nitric oxide synthase. Format: binding. To be noted: components of EtOAc extract; EF = (A1 − A2)/A0 × 100%. How it is done:
as §1, §2

For test [6], the system named is LPS-induced iNOS expression in RAW 264.7 murine macrophages. The test can be described thus: Western blotting of LPS-induced iNOS expression. In kind it is cell-based. To be noted: 50 μM; LPS-induced RAW 264.7; Western blot. How it is done: Western blotting was conducted with the previous procedure. Cells were treated with different concentrations of compounds and 100 ng/mL of LPS for a day. After rinsing cells with cold PBS, proteins were harvested with radioimmunoprecipitation assay buffer (RIPA buffer) and stored at −20 °C for succeeding procedure. Proteins were separated on a 12.5% SDS-polyacrylamide gel and then electrophoretically transferred to a PVDF membrane. The membrane was soaked in 2% bovine serum albumin (BSA) blocking buffer for 2 h, then washed 2–3 times with TBST. Proteins were treated by particular primary antibodies and immersed overnight. The following day, PVDF membranes were washed with TBST to remove residual primary antibodies, and then immersed with secondary antibodies for 2 h. Then, enhanced chemiluminescence solution was coated on the membrane and visualized using an ImageQuant LAS 4000 Mini Biomolecular Imager (GE Healthcare, Marlborough, MA, USA). Finally, we quantified band density by ImageJ software 1.53a (BioTechniques, New York, NY, USA).
A general note: A western blot detects proteins with antibodies after separation by electrophoresis.

The target in the next test is α-glucosidase. As to the kind of experiment: α-Glucosidase inhibitory activity assay. Format: biochemical. To be noted: isolated compounds. As for the experimental part: To test the anti-α-glucosidase effect of each solvent extract and each component, a previously described method was used. […] The α-glucosidase solution was diluted to 1 U/mL with 0.1 M sodium phosphate buffer (pH 6.8). Various concentrations of extract or compound (100 µL) and α-glucosidase solution (20 µL) were mixed. Subsequently, 0.53 mM p-NPG (380 µL) was added and incubated at 37 °C for 40 min. The reaction was stopped by adding 500 μL of 0.1 M Na2CO3 solution, and the absorbance was detected at 405 nm.
α-glucosidase inhibition (%) was counted as follows (Asample and Acontrol represent the absorbance of the tested sample and control, respectively):α-glucosidase inhibition (%) = (Acontrol − Asample)/Acontrol × 100%

The nature of test [7]: DPPH radical scavenging activity. To be noted: 50% free radical scavenging; for EC50: isolated components, read-out: SC50 DPPH. As for the experimental part: The DPPH radical scavenging effect was measured based on the reported method. BHT was applied as a positive control. DPPH solution was prepared diluted by EtOH to reach the final concentration of 400 µM. Different concentrations (400, 200, 100, 50, and 25 µg/mL) of extracts or compounds (100 µL) were mixed with DPPH solution (100 µL) and incubated for 30 min at room temperature and in darkness, and the absorbance of the mixture was measured at 520 nm.
(DPPH is a stable violet radical that fades when it is reduced.)

Test [8] in a line: ABTS cation radical scavenging activity. To be noted: 50% free radical scavenging; for EC50: isolated components, read-out: SC50 ABTS. How it is done: The ABTS cation radical scavenging effect was measured, as previously described by. […] The working solution was diluted by EtOH to reach the absorbance of 0.70 ± 0.02 at 740 nm for further experiments. Different concentrations (400, 200, 100, 50, and 25 µg/mL) of extracts or compounds (10 µL) were mixed with the working solution (190 μL). The mixture was incubated at room temperature for 6 min, and the antioxidant activity of the mixture was determined by the decrease in absorbance measured at 740 nm.

Test [9] addresses T1, acetylcholinesterase (AChE). As to the kind of experiment: biochemical. The conditions noted are these: read-out: IC50 AChE (converted). As for the experimental part:
The acetylcholinesterase inhibitory assay was carried out applying a method described in reference. Briefly, 0.1 M sodium phosphate buffer (pH 8.0, 140 μL), DTNB (10 μL), sample (20 μL), and AChE solution (15 μL) were added to a 96-well microplate and incubated at room temperature for 10 min. Finally, the absorbance was detected with a spectrophotometer at 405 nm.
The acetylcholinesterase inhibitory effect was counted as follows (Asample and Acontrol represent the absorbance of the tested sample and control, respectively):Acetylcholinesterase inhibitory activity (%) = (Acontrol − Asample)/Acontrol × 100%

Where two headings read alike, the source gives them in different places. Marks after values point to notes of the source that are not given here.

The IC50 is the concentration that inhibits the measured activity by half.

T1 sequence (O42275 24-633): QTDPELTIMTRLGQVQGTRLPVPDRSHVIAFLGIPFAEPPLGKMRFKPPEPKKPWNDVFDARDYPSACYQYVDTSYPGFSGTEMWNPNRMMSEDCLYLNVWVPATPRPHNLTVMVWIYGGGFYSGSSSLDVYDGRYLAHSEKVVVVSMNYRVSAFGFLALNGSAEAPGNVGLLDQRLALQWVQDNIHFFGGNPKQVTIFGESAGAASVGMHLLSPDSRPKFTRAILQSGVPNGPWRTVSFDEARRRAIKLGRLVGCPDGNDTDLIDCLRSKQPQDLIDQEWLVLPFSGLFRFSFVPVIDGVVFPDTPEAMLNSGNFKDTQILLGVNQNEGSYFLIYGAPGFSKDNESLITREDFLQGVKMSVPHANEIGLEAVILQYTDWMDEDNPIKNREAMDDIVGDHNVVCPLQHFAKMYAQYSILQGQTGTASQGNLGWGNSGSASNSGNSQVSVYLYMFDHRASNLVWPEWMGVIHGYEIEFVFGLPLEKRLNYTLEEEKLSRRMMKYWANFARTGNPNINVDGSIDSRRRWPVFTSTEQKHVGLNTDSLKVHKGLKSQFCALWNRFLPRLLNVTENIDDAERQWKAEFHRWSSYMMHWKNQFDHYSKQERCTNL

`O=c1cc(-c2ccc(O)c(O)c2)oc2cc(O[C@@H]3O[C@H](CO)[C@@H](O)[C@H](O)[C@H]3O)cc(O)c12` [Cynaroside, cynaroside, reference compound]: the EC50 in test [1] stood at 50.6 ± 2.62 µM. The “SC50 Superoxide” value in [1] (solvent extracts) was found to be 112.76 ± 5.84 µg/mL.

Regarding `COc1cc(CCc2cc(OC)c(O)c(OC)c2)ccc1O` [Dendrophenol (4), dendrophenol], the “AChE EF (enrichment factor)” value in test [2] stood at 59.48%. Moreover, the IC50 was 14.3 ± 3.17 µM in test [3] (isolated components), 608 ± 48.2 µM at α-glucosidase and 165 ± 13.2 µM in [9] (isolated compounds). Further, the “TE FRAP” value in test [4] (isolated components) is 1686.53 ± 16.61 ^c mM/g; in test [4] (isolated components, listed as dendrophenol), 1686.53 ± 16.61 mM/g. Further, the “iNOS EF (enrichment factor)” value in test [5] stood at 65.11%. The “inhibition of iNOS expression” value in [6] worked out at 89.82%. Further, the EC50 in test [7] was 11.6 ± 0.77 µM; in [1], more than 400 µM; in [8], 7.64 ± 0.63 µM.

With `Cc1cc(C(C)(C)C)c(O)c(C(C)(C)C)c1` [BHT, butylated hydroxytoluene, reference compound], the results for the “TE FRAP” value in test [4] (isolated components) and in [4] (solvent extracts) were 4355.95 ± 99.23 mM/g and 4296.98 ± 48.40 mM/g, respectively. Also, the figures for the EC50 in [7] and in test [8] were 90.8 ± 5.65 µM and 53.7 ± 1.48 µM, respectively. The “SC50 DPPH” value in test [7] (solvent extracts) was found to be 36.64 ± 2.22 µg/mL. Moreover, the “SC50 ABTS” value in test [8] (solvent extracts) is 46.83 ± 0.44 µg/mL.

Regarding `COc1cc(O)cc(CCc2cccc(O)c2)c1` [Batatasin III (3), batatasin III], in test [2], the “AChE EF (enrichment factor)” value turned out to be 31.87%. In addition, the IC50 is 51.3 ± 5.51 µM in test [3] (isolated components), 723 ± 53.5 µM at α-glucosidase and 258 ± 18.5 µM in test [9] (isolated compounds). Besides, the “TE FRAP” value in [4] (isolated components) is listed as 559.67 ± 51.49 ^c mM/g; in test [4] (isolated components, listed as batatasin III) it was 559.67 ± 51.49 mM/g. Moreover, the “iNOS EF (enrichment factor)” value in [5] stood at 27.18%. Further, the EC50 in test [7] is more than 400 µM; in test [1] it was more than 400 µM; in test [8], 30.1 ± 1.7 µM.

`O=C(/C=C/c1ccc(O)c(O)c1)O[C@@H]1C[C@](O)(C(=O)O)C[C@@H](O)[C@H]1O` [Chlorogenic acid, chlorogenic acid, reference compound]: the IC50 in test [9] (isolated compounds) is 236 ± 15.9 µM; in test [9] (solvent extracts), 214 µM.

On to `Oc1ccc(CCc2cc(O)cc(O)c2)cc1` [Dihydroresveratrol], for which the “AChE EF (enrichment factor)” value in [2] was determined as 0.08%. In test [5], the “iNOS EF (enrichment factor)” value amounted to 0.62%.

For `O=c1c(O)c(-c2ccc(O)c(O)c2)oc2cc(O)cc(O)c12` [Quercetin, quercetin, reference compound], the IC50 stood at 23.1 ± 1.43 µM in test [3] (isolated components) and 6.98 ± 0.43 µg/mL in test [3] (solvent extracts).

Consider `COc1ccc2c(c1)CCc1cc(O)cc(OC)c1-2` [Coelonin], for which the “AChE EF (enrichment factor)” value in test [2] was found to be 2.00%. The “iNOS EF (enrichment factor)” value in test [5] stood at 5.09%.

As to `COc1cc(O)cc(CCc2ccc(O)c(OC)c2)c1` [Gigantol (1), gigantol], in test [2], the “AChE EF (enrichment factor)” value is listed as 54.60%. The IC50 was 63.7 ± 11.4 µM in test [3] (isolated components), 470 ± 28.5 µM on α-glucosidase and 176 ± 19.1 µM in [9] (isolated compounds). For the same compound, the “TE FRAP” value was 1483.20 ± 63.49 ^c mM/g in test [4] (isolated components) and 1483.20 ± 63.49 mM/g in test [4] (isolated components, listed as gigantol). Also, the “iNOS EF (enrichment factor)” value in [5] amounted to 44.84%. Besides, the EC50 in [7] was 35.2 ± 1.34 µM; in test [1], more than 400 µM; in test [8], 12.2 ± 0.54 µM.

Regarding `COc1cc(CCc2cc(O)cc(O)c2)ccc1O` [Tristin], in [2], the “AChE EF (enrichment factor)” value was 5.83%. Moreover, the “iNOS EF (enrichment factor)” value in test [5] amounted to 0.95%.

For the compound `COc1c(O)cc2ccc3cc(O)ccc3c2c1OC` [Nudol], the “AChE EF (enrichment factor)” value in [2] is listed as 29.56%. Besides, in [5], the “iNOS EF (enrichment factor)” value is reported as 24.39%.

Turning to `Oc1ccc2c(c1)CCc1cc(O)cc(O)c1-2` [2,4,7-Trihydroxy-9,10-dihydrophenanthrene], the “AChE EF (enrichment factor)” value in test [2] was found to be 1.32%. Moreover, in test [5], the “iNOS EF (enrichment factor)” value was determined as 0.91%.

In the case of `COc1ccc(CCc2cc(OC)c(OC)c(OC)c2)cc1O` [Erianin], the “AChE EF (enrichment factor)” value in test [2] was determined as 0.23%. For the same compound, the “iNOS EF (enrichment factor)” value in test [5] is 1.72%.
